Laboratory results as given in PMC6133161, “Thiazoles with cyclopropyl fragment as antifungal, anticonvulsant, and anti-Toxoplasma gondii agents: synthesis, toxicity evaluation, and molecular docking study” (Medicinal Chemistry Research, 2018).

Assays:
[1] = test system: maximal electroshock seizures; assay: Maximal electroshock seizure (MES) test; assay type: in vivo, mouse; settings: mice; for responders at 100 mg/kg / responders at 30 mg/kg: Mus musculus; for responders at 100 mg/kg / animals with reduced seizures / responders at 30 mg/kg: MES test; for responders at 100 mg/kg: 100 mg/kg ip, read-out: X/Y number of mice protected (X) per number of mice tested (Y) (converted); for animals with reduced seizures: 100 mg/kg; for responders at 30 mg/kg: 30 mg/kg ip, read-out: X/Y number of mice protected (X) per number of mice tested (Y); for anticonvulsant activity in MES test: 30 mg/kg
Procedure: (§1) For in vivo tests that assessed anticonvulsant properties of the test compounds 3a–3j adult male Albino Swiss (CD-1) mice weighing between 18 and 22 g were used. The animals were housed in groups of ten mice per cage at room temperature of 22 ± 2 °C, under light/dark (12:12) cycle. The animals had free access to food and tap water before the experiments. The ambient temperature of the experimental room and humidity (50 ± 10%) were kept consistent throughout all the tests. For behavioral experiments the animals were selected randomly. Each experimental group consisted of 4–8 animals/dose. The experiments were performed between 9 AM and 2 PM. Immediately after the in vivo assay the animals were euthanized by cervical dislocation. All procedures were approved by the Local Ethics Committee of the Jagiellonian University in Krakow (34/2018, 1.02.2018)) and the treatment of animals was in full accordance with ethical standards laid down in respective Polish and EU regulations (Directive No. 86/609/EEC). For in vivo tests the compounds 3a–3j were prepared in 1% Tween 80 solution (POCH, Poland) and they were administered by the intraperitoneal route. Control mice received 1% Tween 80. Pentylenetetrazole (PTZ), pilocarpine hydrochloride and scopolamine butylbromide were provided by Sigma Aldrich (Poland). For the tests they were prepared in 0.9% saline (Polfa Kutno, Poland). PTZ and pilocarpine were administered 60 min after the test compound or vehicle. To assess anticonvulsant properties of the test compounds anticonvulsant screening was conducted. Four assays were used: PTZ, maximal electroshock seizure (MES), 6-Hz and pilocarpine tests. In these assays the dose of 100 mg/kg was chosen as a starting dose. If it turned out to be effective, a lower dose (30 mg/kg) was also tested. MES test was performed according to a method previously described (Sałat et al. [2005]). In this test vehicle-treated mice and drug-treated mice received a stimulus of 25 mA delivered by an electroshock generator (Hugo Sachs rodent shocker, Germany) to induce maximal seizures (tonic extension) of hind limbs. Electroconvulsions were produced with the use of auricular electrodes and the stimulus duration was 0.2 s. Tonic extension of the hind limbs was regarded as the endpoint for this procedure.

L929 and VERO cell lines = assay: MTT cytotoxicity assay; assay type: cell-based, mouse; African green monkey; settings: 24 h, higher concentrations not reached due to limited solubility
[2] = test system: PTZ-induced clonic seizures; assay: PTZ seizure test; assay type: in vivo, mouse; settings: mice, ip, 60 min before PTZ 100 mg/kg sc; for latency time to first clonus / number of seizure episodes: vs vehicle
Procedure: as §1, with “tested. The” for “tested. MES”, “[2005]). Clonic convulsions were induced by the subcutaneous (sc) administration of PTZ at a dose of 100 mg/kg. After PTZ injection, each mouse was immediately placed in a transparent Plexiglas cage (30 × 20 × 15 cm) and was observed during the next 30 min for the occurrence of clonic seizures. Clonic seizures were defined as clonus of the whole body lasting more than 3 s, with an accompanying loss of righting reflex. Latency time to first clonus and the number of seizure episodes were noted and compared between” for “[2005]). In this test”, “vehicle-treated” for “vehicle-treated mice”, “drug-treated groups.” for “drug-treated mice received a stimulus of 25 mA delivered by an electroshock generator (Hugo Sachs rodent shocker, Germany) to induce maximal seizures (tonic extension) of hind limbs. Electroconvulsions were produced with the use of auricular electrodes and the stimulus duration was 0.2 s. Tonic extension of the hind limbs was regarded as the endpoint for this procedure.”

[3] = test system: pilocarpine-induced status epilepticus; assay: Pilocarpine-induced seizures; assay type: in vivo, mouse; settings: mice, 100 mg/kg ip, pilocarpine 400 mg/kg ip; post-hoc vs vehicle
Procedure: For in vivo tests that assessed anticonvulsant properties of the test compounds 3a–3j adult male Albino Swiss (CD-1) mice weighing between 18 and 22 g were used. The animals were housed in groups of ten mice per cage at room temperature of 22 ± 2 °C, under light/dark (12:12) cycle. The animals had free access to food and tap water before the experiments. The ambient temperature of the experimental room and humidity (50 ± 10%) were kept consistent throughout all the tests. For behavioral experiments the animals were selected randomly. Each experimental group consisted of 4–8 animals/dose. The experiments were performed between 9 AM and 2 PM. Immediately after the in vivo assay the animals were euthanized by cervical dislocation. All procedures were approved by the Local Ethics Committee of the Jagiellonian University in Krakow (34/2018, 1.02.2018)) and the treatment of animals was in full accordance with ethical standards laid down in respective Polish and EU regulations (Directive No. 86/609/EEC). For in vivo tests the compounds 3a–3j were prepared in 1% Tween 80 solution (POCH, Poland) and they were administered by the intraperitoneal route. Control mice received 1% Tween 80. Pentylenetetrazole (PTZ), pilocarpine hydrochloride and scopolamine butylbromide were provided by Sigma Aldrich (Poland). For the tests they were prepared in 0.9% saline (Polfa Kutno, Poland). PTZ and pilocarpine were administered 60 min after the test compound or vehicle. To assess anticonvulsant properties of the test compounds anticonvulsant screening was conducted. Four assays were used: PTZ, maximal electroshock seizure (MES), 6-Hz and pilocarpine tests. In these assays the dose of 100 mg/kg was chosen as a starting dose. If it turned out to be effective, a lower dose (30 mg/kg) was also tested. In this test the mice were pretreated with the investigated compound or vehicle and 60 min later they received pilocarpine (400 mg/kg, ip). To avoid cholinergic side-effects: peripheral toxicity and diarrhea, masticatory and stereotyped movements, animals treated with pilocarpine also received scopolamine butylbromide (1 mg/kg, ip) which was injected 45 min before pilocarpine. After the administration of the convulsant, the mice were observed during the next 60 min for behavioral changes. Latency time to the onset of status epilepticus was considered as the endpoint in this test (Wilhelm et al. [2010]).

Row | melting point | Structure (SMILES) | responders at 100 mg/kg [1] | highest possible non-cytotoxic concentration (L929 and VERO cell lines) | animals with reduced seizures [1] | responders at 30 mg/kg [1] | anticonvulsant activity in MES test [1] | anticonvulsant activity in PTZ model [2] | latency time to pilocarpine-induced status epilepticus [3] | latency time to first clonus [2] | number of seizure episodes [2]
1 | – | Fc1ccc(-c2csc(N/N=C/C3CC3)n2)cc1 [Compound 3a, (E)-2-(2-(Cyclopropylmethylene)hydrazinyl)-4-(4-fluorophenyl)thiazole] | 37.5% | 31.25 µg/mL | – | – | – | – | – | – | –
2 | 165 to 167 °C | Brc1ccc(-c2csc(N/N=C/C3CC3)n2)cc1 [Compound 3b, (E)-4-(4-Bromophenyl)-2-(2-(cyclopropylmethylene)hydrazinyl)thiazole] | 37.5% | 7.81 µg/mL | – | – | – | – | – | – | –
3 | 162 to 163 °C | Clc1ccc(-c2csc(N/N=C/C3CC3)n2)cc1 [Compound 3c, (E)-4-(4-Chlorophenyl)-2-(2-(cyclopropylmethylene)hydrazinyl)thiazole] | 75% | 7.81 µg/mL | 75% | 0% | not active | not effective | did not show statistically significant anticonvulsant effects | – | –
4 | – | Cc1ccc(-c2csc(N/N=C/C3CC3)n2)cc1 [Compound 3d, (E)-2-(2-(Cyclopropylmethylene)hydrazinyl)-4-p-tolylthiazole] | 37.5% | 31.25 µg/mL | – | – | – | – | – | – | –
5 | 132 to 134 °C | FC(F)(F)c1ccc(-c2csc(N/N=C/C3CC3)n2)cc1 [Compound 3e, (E)-2-(2-(Cyclopropylmethylene)hydrazinyl)-4-(4-(trifluoromethyl)phenyl)thiazole] | 62.5% | 3.91 µg/mL | 63% | 0% | not active | not effective | did not show statistically significant anticonvulsant effects | – | –
6 | – | Fc1ccc(-c2csc(N/N=C/C3CC3)n2)c(F)c1 [Compound 3g, (E)-2-(2-(Cyclopropylmethylene)hydrazinyl)-4-(2,4-difluorophenyl)thiazole] | 37.5% | 15.63 µg/mL | – | – | – | – | – | – | –
7 | – | N#Cc1ccc(-c2csc(N/N=C/C3CC3)n2)cc1 [Compound 3h, (E)-4-(2-(2-(Cyclopropylmethylene)hydrazinyl)thiazol-4-yl)benzonitrile] | 50% | 31.25 µg/mL | – | – | – | – | – | – | –
8 | 124 to 126 °C | [N-]=[N+]=Nc1ccc(-c2csc(N/N=C/C3CC3)n2)cc1 [Compound 3i, (E)-4-(4-Azidophenyl)-2-(2-(cyclopropylmethylene)hydrazinyl)thiazole] | 37.5% | 15.63 µg/mL | – | – | – | – | did not show statistically significant anticonvulsant effects | significantly prolonged | reduced
9 | – | O=[N+]([O-])c1ccc(-c2csc(N/N=C/C3CC3)n2)cc1 [Compound 3j, (E)-2-(2-(Cyclopropylmethylene)hydrazinyl)-4-(4-nitrophenyl)thiazole] | 50% | 31.25 µg/mL | – | – | – | – | – | – | –

Row | Structure (SMILES) | melting point | responders at 100 mg/kg [1] | highest possible non-cytotoxic concentration (L929 and VERO cell lines) | animals with reduced seizures [1] | responders at 30 mg/kg [1] | anticonvulsant activity in MES test [1] | anticonvulsant activity in PTZ model [2] | latency time to pilocarpine-induced status epilepticus [3] | latency time to first clonus [2] | number of seizure episodes [2]
10 | COc1ccc(-c2csc(N/N=C/C3CC3)n2)cc1 [Compound 3f, (E)-2-(2-(Cyclopropylmethylene)hydrazinyl)-4-(4-methoxyphenyl)thiazole] | 149 to 152 °C | 50% | 31.25 µg/mL | – | – | – | – | did not show statistically significant anticonvulsant effects | significantly prolonged | reduced
